Legend:
[1] = system: MAT2A activity (SAM) in HCT116 cells with deleted MTAP gene; assay: Cellular assay of target engagement (SAM) by LC-MS/MS; type: cell-based; conditions: Homo sapiens, HCT-116; HCT116 MTAP −/−, 72 hrs; read-out: Cell 72 h SAM Inhibition (MTAP −/−)
In short: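 HCT116 MTAP-deleted cells treated with 10-point 3-fold DMSO serial dilutions of compound for 72 hrs at 37° C. Cells lysed in cold 80% methanol/acetic acid extraction buffer with d3-SAM internal standard; SAM quantified by LC-MS/MS (MRM m/z 399.2→250.1).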

HCT116 MTAP−/− = assay: Inhibition of cellular proliferation (Cell Titer Glo), HCT116 MTAP-/-; type: cell-based; conditions: Homo sapiens, HCT-116, 96 h, 4 days, read-out: 4 Day Relative Growth Inhibition (MTAP −/−)
In short: (§1)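 Isogenic HCT116 MTAP+/+ and MTAP−/− cells treated 24 h after plating with 10-point 3-fold dilutions, then grown 4 days at 37 °C/5% CO2. ATP content read by Cell Titer Glo luminescence, blank-subtracted and normalized to 0.2% DMSO control, plotted as percent proliferation change versus log molar concentration.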

HCT116 MTAP+/+ = assay: Inhibition of cellular proliferation (Cell Titer Glo), HCT116 MTAP+/+; type: cell-based; conditions: Homo sapiens, HCT-116, 96 h, 4 days, read-out: 4 Day Relative Growth Inhibition (MTAP +/+)
In short: as §1

MAT2A homodimer = target: T1, MAT2A homodimer (Homo sapiens, UniProt P31153); assay: MAT2A biochemical assay (phosphate release, PiColorLock Gold); conditions: recombinant MAT2A homodimer, 60 min pre-incubation, 25° C.; read-out: Enzyme Inhibition
T1 construct: inferred from Ni sepharose purification and imidazole elution; made in house; host or cells: SF9 insect cells, recombinant baculovirus (Bac to Bac, pFASTBAC1)
In short: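 Baculovirus/Sf9-expressed, Ni-purified MAT2A homodimer (4 µg/mL in pH 8.0 Tris/KCl/MgCl2 buffer) preincubated 60 min at 25 °C with compound (2% DMSO final). Substrate mix of 500 µM ATP and 400 µM L-methionine added; 60 min at 25 °C; released phosphate quantified colorimetrically against a phosphate standard curve.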

T1 sequence (P31153 whole entry): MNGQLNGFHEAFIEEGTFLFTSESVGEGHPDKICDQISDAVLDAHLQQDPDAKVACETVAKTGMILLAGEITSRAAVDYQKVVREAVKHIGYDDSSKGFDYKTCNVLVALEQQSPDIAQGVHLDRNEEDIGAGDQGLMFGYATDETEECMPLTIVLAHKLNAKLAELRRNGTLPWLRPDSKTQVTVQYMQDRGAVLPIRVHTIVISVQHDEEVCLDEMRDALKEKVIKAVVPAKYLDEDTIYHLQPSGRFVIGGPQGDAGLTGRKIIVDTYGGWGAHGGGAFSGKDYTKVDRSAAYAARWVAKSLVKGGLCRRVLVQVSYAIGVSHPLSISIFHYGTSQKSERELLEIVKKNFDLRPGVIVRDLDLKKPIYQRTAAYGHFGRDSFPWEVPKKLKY

| SMILES | IC50 [1] [nM] | IC50 (HCT116 MTAP−/−) [nM] | IC50 (HCT116 MTAP+/+) [nM] | IC50 (MAT2A homodimer) [nM] |
| --- | --- | --- | --- | --- |
| COc1ccc(-c2c(=O)n(-c3ccc4ncsc4c3)nc3ccc(OCC(F)F)nc23)cc1 [Example 144] | < 100 | < 100 | ≥ 1000 | < 100 |
| CCOc1ccc2nn(-c3ccc4ncsc4c3)c(=O)c(-c3ccc(OC(F)F)cc3)c2n1 [Example 145] | < 100 | < 100 | ≥ 1000 | < 100 |
| CC(C)Oc1ccc2nn(-c3ccc4ncsc4c3)c(=O)c(-c3ccc(OC(F)F)cc3)c2n1 [Example 146] | < 100 | < 100 | ≥ 1000 | < 100 |
| O=c1c(-c2ccc(C3CC3)nc2)c2nc(OCC(F)F)ccc2nn1-c1ccc2ncsc2c1 [Example 147] | 100 to 1000 | 100 to 1000 | ≥ 1000 | < 100 |
| O=c1c(-c2ccc(OC(F)F)nc2)c2nc(OCC(F)F)ccc2nn1-c1ccc2ncsc2c1 [Example 148] | 100 to 1000 | 100 to 1000 | ≥ 1000 | < 100 |
| Cn1cc2cc(-n3nc4ccc(OCC(F)F)nc4c(C4=CCC(O)CC4)c3=O)ccc2n1 (centres unmarked) [Example 149] | < 100 | 100 to 1000 | ≥ 1000 | < 100 |
| Cn1cc2cc(-n3nc4ccc(OCC(F)F)nc4c(-c4ccc5[nH]ccc5c4)c3=O)ccc2n1 [Example 150] | < 100 | < 100 | ≥ 1000 | < 100 |
| [2H]C([2H])([2H])Oc1ccc(-c2c(=O)n(-c3ccc4ncsc4c3)nc3ccc(OCC(F)F)nc23)cc1 [Example 151] | < 100 | < 100 | ≥ 1000 | < 100 |
| COC1CC=C(c2c(=O)n(-c3ccc4nn(C)cc4c3)nc3ccc(OCC(F)F)nc23)CC1 (centres unmarked) [Example 152] | < 100 | < 100 | 100 to 1000 | < 100 |
| Cn1cc2cc(-n3nc4ccc(OCC(F)F)nc4c(-c4ccn[nH]4)c3=O)ccc2n1 [Example 153] | > 1000 | ≥ 1000 | ≥ 1000 | 100 to 1000 |
| Cn1cc2cc(-n3nc4ccc(NCC(F)(F)F)nc4c(-c4ccc(Cl)cc4)c3=O)ccc2n1 [Example 154] | < 100 | < 100 | ≥ 1000 | < 100 |
| Cn1cc2cc(-n3nc4ccc(NC5CC5)nc4c(-c4ccc(Cl)cc4)c3=O)ccc2n1 [Example 155] | < 100 | < 100 | ≥ 1000 | < 100 |
| Cn1cc2cc(-n3nc4ccc(NCC(F)F)nc4c(-c4ccc(Cl)cc4)c3=O)ccc2n1 [Example 156] | < 100 | < 100 | ≥ 1000 | < 100 |
| [2H]C([2H])([2H])Oc1ccc(-c2c(=O)n(-c3ccc4nn(C)cc4c3)nc3ccc(OCCF)nc23)cc1 [Example 157] | 100 to 1000 | 100 to 1000 | ≥ 1000 | < 100 |
| CCSc1ccc2nn(-c3ccc4nn(C)cc4c3)c(=O)c(-c3ccc(OC(F)F)cc3)c2n1 [Example 158] | < 100 | < 100 | ≥ 1000 | < 100 |
| CCNc1ccc2nn(-c3ccc4nn(C)cc4c3)c(=O)c(-c3ccc(OC(F)F)cc3)c2n1 [Example 159] | < 100 | < 100 | ≥ 1000 | < 100 |

| SMILES | IC50 [1] [nM] | IC50 (HCT116 MTAP−/−) [nM] | IC50 (HCT116 MTAP+/+) [nM] | IC50 (MAT2A homodimer) [nM] |
| --- | --- | --- | --- | --- |
| Cn1cc2cc(-n3nc4ccc(NCC(F)(F)F)nc4c(-c4ccc(OC(F)F)cc4)c3=O)ccc2n1 [Example 160] | < 100 | < 100 | ≥ 1000 | < 100 |
| [2H]C([2H])([2H])C([2H])([2H])Oc1ccc2nn(-c3ccc4nn(C)cc4c3)c(=O)c(-c3ccc(OC(F)F)cc3)c2n1 [Example 161] | < 100 | < 100 | ≥ 1000 | < 100 |
| Cn1cc2cc(-n3nc4ccc(NC5CC5)nc4c(-c4ccc(OC(F)F)cc4)c3=O)ccc2n1 [Example 162] | < 100 | < 100 | ≥ 1000 | < 100 |
| Cn1cc2cc(-n3nc4ccc(N5CCCC5)nc4c(-c4ccc(OC(F)F)cc4)c3=O)ccc2n1 [Example 163] | > 1000 | ≥ 1000 | ≥ 1000 | < 100 |
| Cn1cc2cc(-n3nc4ccc(SCC(F)(F)F)nc4c(-c4ccc(OC(F)F)cc4)c3=O)ccc2n1 [Example 165] | < 100 | < 100 | 100 to 1000 | < 100 |
| Cc1c2cc(-n3nc4ccc(OCC(F)F)nc4c(-c4ccc(OC(F)F)cc4)c3=O)ccc2nn1C [Example 166, 6-(2,2-difluoroethoxy)-4-(4-(difluoromethoxy)phenyl)-2-(2,3-dimethyl-2H-indazol-5-yl)pyrido[3,2-c]pyridazin-3(2H)-one] | < 100 | < 100 | ≥ 1000 | < 100 |
| Cn1cnc2ccc(-n3nc4ccc(OCC(F)F)nc4c(-c4ccc(OC(F)F)cc4)c3=O)cc21 [Example 167, 6-(2,2-difluoroethoxy)-4-(4-(difluoromethoxy)phenyl)-2-(1-methyl-1H-benzo[d]imidazol-6-yl)pyrido[3,2-c]pyridazin-3(2H)-one] | < 100 | < 100 | ≥ 1000 | < 100 |
| CCOc1ccc2nn(-c3ccc4ncccc4c3)c(=O)c(-c3ccc(Cl)cc3)c2n1 [Example 168] | < 100 | 100 to 1000 | ≥ 1000 | < 100 |
| O=c1c(-c2ccc(OC(F)F)cc2)c2nc(OCC(F)F)ccc2nn1-c1ccc2ncsc2c1 [Example 169] | < 100 | < 100 | < 100 | < 100 |
| O=c1c(-c2ccc(OC(F)F)cc2)c2nc(OCC(F)F)ccc2nn1-c1ccc2nccn2c1 [Example 170] | < 100 | 100 to 1000 | ≥ 1000 | < 100 |
| COc1c2cc(-n3nc4ccc(OCC(F)F)nc4c(-c4ccc(OC(F)F)cc4)c3=O)ccc2nn1C [Example 171] | < 100 | < 100 | ≥ 1000 | < 100 |
| COc1nc2ccc(-n3nc4ccc(OCC(F)F)nc4c(-c4ccc(OC(F)F)cc4)c3=O)cc2n1C [Example 172] | < 100 | < 100 | ≥ 1000 | < 100 |
| Cc1c2cc(-n3nc4ccc(OCC(F)F)nc4c(-c4ccc(Cl)cc4)c3=O)ccc2nn1C [Example 173] | < 100 | < 100 | 100 to 1000 | < 100 |
| COc1c2cc(-n3nc4ccc(OCC(F)F)nc4c(-c4ccc(Cl)cc4)c3=O)ccc2nn1C [Example 174] | < 100 | < 100 | ≥ 1000 | < 100 |
| [2H]C([2H])([2H])Oc1c2cc(-n3nc4ccc(OCC(F)F)nc4c(-c4ccc(OC(F)F)cc4)c3=O)ccc2nn1C [Example 175] | < 100 | < 100 | 100 to 1000 | < 100 |
| O=c1c(-c2ccc(OC(F)F)cc2)c2nc(OCC(F)F)ccc2nn1-c1ccc2nnccc2c1 [Example 176] | < 100 | 100 to 1000 | 100 to 1000 | < 100 |

Source: patent US12077534B2, “Aza-heterobicyclic inhibitors of MAT2A and methods of use for treating cancer” (Les Laboratoires Servier SAS, priority 2018, dated 2024)
